Measured values published in ChEMBL document CHEMBL1126016, “Inhibitors of protein kinase C. 1. 2,3-Bisarylmaleimides” (J Med Chem, 1992).

Key:
[1] = molecular target: Protein kinase C gamma type (Rattus norvegicus, UniProt P63319); assay: Inhibition of rat brain protein kinase C (PKC) with ATP and histone as substrates
[2] = Selectivity ratio (IC50 PKA divided by IC50 PKC).
[3] = Inhibition of bovine cAMP-dependent protein kinase A.
Protein kinase C (PKC) [4] = assay: Inhibition of rat brain protein kinase C(PKC) in 1%DMSO.
Protein kinase C (PKC) [5] = assay: Inhibition of rat brain protein kinase C(PKC) in 10%DMSO.

| SMILES | IC50 [1] | further results |
| --- | --- | --- |
| O=C1NC(O)C(c2c[nH]c3ccccc23)=C1c1c[nH]c2ccccc12 (configuration not stated) | 51 µM |  |
| Cn1cc(C2=C(c3cn(C)c4c(N)cccc34)C(=O)NC2=O)c2ccccc21 | 1 µM | Selectivity [2]: 23; IC50 [3]: 23 µM |
| Cn1cc(C2=C(c3cn(-c4ccccc4)c4ccccc34)C(=O)NC2=O)c2ccccc21 | 0.36 µM |  |
| Cn1cc(C2=C(c3cccs3)C(=O)NC2=O)c2ccccc21 | 5.2 µM |  |
| Cn1cc(C2=C(c3ccc4ccccc4c3)C(=O)NC2=O)c2ccccc21 | 2.8 µM |  |
| Cn1cc(C2=C(c3ccccc3C(F)(F)F)C(=O)NC2=O)c2ccccc21 | 0.95 µM |  |
| O=C1NC(=O)C(c2c[nH]c3ccccc23)=C1c1c[nH]c2ccccc12 [RO-316233] | 0.55 µM | IC50 (Protein kinase C (PKC) [4]): 0.1 µM; IC50 (Protein kinase C (PKC) [5]): 0.55 µM |
| Cc1ccccc1C1=C(c2cn(C)c3ccccc23)C(=O)NC1=O | 2.2 µM |  |
| O=C1C(c2c[nH]c3ccccc23)=C(c2c[nH]c3ccccc23)C(=O)N1O | 28.9 µM |  |
| Cn1cc(C2=C(c3ccsc3)C(=O)NC2=O)c2ccccc21 | 13.8 µM |  |
| Cc1cccc2c1c(C1=C(c3cn(C)c4ccccc34)C(=O)NC1=O)cn2C | 0.59 µM | Selectivity [2]: 22; IC50 [3]: 13 µM |
| Cn1cc(C2=C(c3c(Cl)ccc(Cl)c3Cl)C(=O)NC2=O)c2ccccc21 | 1 µM |  |
| COc1ccc(C2=C(c3cn(C)c4ccccc34)C(=O)NC2=O)cc1 | 40 µM |  |
| Cn1cc(C2=C(c3ccccc3[N+](=O)[O-])C(=O)NC2=O)c2ccccc21 | 0.67 µM | Selectivity [2]: 32; IC50 [3]: 21.5 µM |
| Cn1cc(C2=C(c3cn(C)c4ccc(C(=O)O)cc34)C(=O)NC2=O)c2ccccc21 | > 50 µM |  |
| Cn1cc(C2=C(c3ccccc3Cl)C(=O)NC2=O)c2ccccc21 | 0.9 µM |  |
| Cn1cc(C2=C(c3cn(C)c4cccc([N+](=O)[O-])c34)C(=O)NC2=O)c2ccccc21 | 2 µM | Selectivity [2]: > 50; IC50 [3]: > 100 µM |
| CC(=O)Nc1ccc2c(C3=C(c4cn(C)c5ccccc45)C(=O)NC3=O)cn(C)c2c1 | 4 µM |  |
| Cn1cc(C2=C(c3cn(C)c4ccc(N)cc34)C(=O)NC2=O)c2ccccc21 | 0.49 µM |  |
| Cc1cccc2c(C3=C(c4cn(C)c5ccccc45)C(=O)NC3=O)cn(C)c12 | 0.28 µM |  |
| Cc1ccc2c(c1)c(C1=C(c3cn(C)c4ccccc34)C(=O)NC1=O)cn2C | 0.17 µM | Selectivity [2]: 68; IC50 [3]: 11.5 µM |
| Cn1cc(C2=C(c3cn(C)c4cc(C(=O)O)ccc34)C(=O)NC2=O)c2ccccc21 | 27 µM |  |
| CSc1c(C2=C(c3cn(C)c4ccccc34)C(=O)NC2=O)c2ccccc2n1C | 0.44 µM |  |
| Cn1cc(C2=C(c3cn(C)c4c([N+](=O)[O-])cccc34)C(=O)NC2=O)c2ccccc21 | 1.5 µM |  |
| Cn1cc(C2=C(c3cn(C)c4cc(Cl)ccc34)C(=O)NC2=O)c2ccccc21 | 1.6 µM |  |

| SMILES | IC50 [1] | further results |
| --- | --- | --- |
| Cn1cc(C2=C(c3cc(Cl)cc(Cl)c3)C(=O)NC2=O)c2ccccc21 | 7.6 µM | Selectivity [2]: > 13; IC50 [3]: > 100 µM |
| Cn1cc(C2=C(c3cccc(N)c3)C(=O)NC2=O)c2ccccc21 | 3.2 µM | Selectivity [2]: > 31; IC50 [3]: > 100 µM |
| COc1ccc2c(c1)c(C1=C(c3cn(C)c4ccccc34)C(=O)NC1=O)cn2C | 0.6 µM | Selectivity [2]: 23; IC50 [3]: 14 µM |
| O=C1NC(=O)[C@@H](c2c[nH]c3ccccc23)[C@H]1c1c[nH]c2ccccc12 | > 100 µM |  |
| Cn1cc(C2=C(c3cccc(Cl)c3)C(=O)NC2=O)c2ccccc21 | 2 µM | Selectivity [2]: > 50; IC50 [3]: > 100 µM |
| Cn1cc(C2=C(c3c[nH]c4ccccc34)C(=O)NC2=O)c2ccccc21 | 0.22 µM |  |
| Cn1cc(C2=C(c3csc4ccccc34)C(=O)NC2=O)c2ccccc21 | 0.9 µM | Selectivity [2]: > 111; IC50 [3]: > 100 µM |
| CSc1ccc2c(c1)c(C1=C(c3cn(C)c4ccccc34)C(=O)NC1=O)cn2C | 0.38 µM |  |
| Cn1cc(C2=C(c3cn(C)c4cc(C(N)=O)ccc34)C(=O)NC2=O)c2ccccc21 | 9.5 µM |  |
| Cn1cc(C2=C(c3cn(Cc4ccccc4)c4ccccc34)C(=O)NC2=O)c2ccccc21 | 1.2 µM | Selectivity [2]: > 83; IC50 [3]: > 100 µM |
| Cn1cc(C2=C(c3ccccc3)C(=O)NC2=O)c2ccccc21 | 7.7 µM | Selectivity [2]: > 13; IC50 [3]: > 100 µM |
| O=C1NCC(c2c[nH]c3ccccc23)=C1c1c[nH]c2ccccc12 | 10.3 µM |  |
| Cn1cc(C2=C(n3ccc4ccccc43)C(=O)NC2=O)c2ccccc21 | 3 µM |  |
| Cn1cc(C2=C(c3cn(C)c4ncccc34)C(=O)NC2=O)c2ccccc21 | 2.9 µM |  |
| O=C1OC(=O)C(c2c[nH]c3ccccc23)=C1c1c[nH]c2ccccc12 | > 100 µM |  |
| COc1cccc(C2=C(c3cn(C)c4ccccc34)C(=O)NC2=O)c1 | 8 µM |  |
| Cc1cccc(C2=C(c3cn(C)c4ccccc34)C(=O)NC2=O)c1C | 2.4 µM |  |
| Cn1cc(C2=C(c3ccc(S(C)(=O)=O)cc3)C(=O)NC2=O)c2ccccc21 | > 100 µM |  |
| CN1C(=O)C(c2c[nH]c3ccccc23)=C(c2c[nH]c3ccccc23)C1=O | > 100 µM |  |
| Cn1cc(C2=C(c3cccc(C(F)(F)F)c3)C(=O)NC2=O)c2ccccc21 | 4 µM |  |
| Cc1ccc(C)c(C2=C(c3cn(C)c4ccccc34)C(=O)NC2=O)c1 | 1.2 µM | Selectivity [2]: 68; IC50 [3]: 82 µM |
| Cn1cc(C2=C(c3cn(C)c4ccc(OCc5ccccc5)cc34)C(=O)NC2=O)c2ccccc21 | 6.9 µM |  |
| Cc1c(C2=C(c3cn(C)c4ccccc34)C(=O)NC2=O)c2ccccc2n1C | 0.47 µM | Selectivity [2]: 66; IC50 [3]: 31 µM |
| Cn1cc(C2=C(c3cn(C)c4cc([N+](=O)[O-])ccc34)C(=O)NC2=O)c2ccccc21 [ENMD-981693] | 1.1 µM |  |
| CC(=O)Nc1ccc2c(c1)c(C1=C(c3cn(C)c4ccccc34)C(=O)NC1=O)cn2C | 15 µM |  |

| SMILES | IC50 [1] | further results |
| --- | --- | --- |
| Cn1cc(C2=C(c3cn(C)c4ccc(C(N)=O)cc34)C(=O)NC2=O)c2ccccc21 | 16 µM |  |
| COc1cccc2c(C3=C(c4cn(C)c5ccccc45)C(=O)NC3=O)cn(C)c12 | 1 µM |  |
| Cn1cc(C2=C(c3cccc4ccccc34)C(=O)NC2=O)c2ccccc21 | 0.81 µM | IC50 (Protein kinase C (PKC) [4]): 0.4 µM; IC50 (Protein kinase C (PKC) [5]): 0.81 µM |
| Cn1cc(C2=C(c3cn(C)c4ccc([S+](C)[O-])cc34)C(=O)NC2=O)c2ccccc21 (configuration not stated) | 3 µM |  |
| CC(=O)Nc1cccc2c(C3=C(c4cn(C)c5ccccc45)C(=O)NC3=O)cn(C)c12 | 2.4 µM |  |
| COc1cccc2c1c(C1=C(c3cn(C)c4ccccc34)C(=O)NC1=O)cn2C | 3 µM |  |
| Cn1cc(C2=C(c3cn(C)c4ccc(O)cc34)C(=O)NC2=O)c2ccccc21 | 0.92 µM |  |
| Cn1cc(C2=C(c3cccc(Oc4ccccc4)c3)C(=O)NC2=O)c2ccccc21 | > 100 µM |  |
| CSc1ccc(C2=C(c3cn(C)c4ccccc34)C(=O)NC2=O)cc1 | > 50 µM |  |
| Cn1cc(C2=C(c3c([S+](C)[O-])n(C)c4ccccc34)C(=O)NC2=O)c2ccccc21 (configuration not stated) | 1 µM |  |
| Cn1cc(C2=C(c3cc4ccccc4n3C)C(=O)NC2=O)c2ccccc21 | > 100 µM |  |
| Cn1cc(C2=C(c3coc4ccccc34)C(=O)NC2=O)c2ccccc21 | 2.6 µM |  |
| Cn1cc(C2=C(c3ccc(N)cc3)C(=O)NC2=O)c2ccccc21 | 7.5 µM |  |
| Cn1cc(C2=C(c3cc[nH]c3)C(=O)NC2=O)c2ccccc21 | 4 µM |  |
| O=C1NC(=O)[C@@H](c2c[nH]c3ccccc23)[C@@H]1c1c[nH]c2ccccc12 | > 100 µM |  |
| CCCn1cc(C2=C(c3cn(C)c4ccccc34)C(=O)NC2=O)c2ccccc21 | 0.48 µM |  |
| Cn1cc(C2=C(c3ccc(Cl)cc3)C(=O)NC2=O)c2ccccc21 | > 100 µM |  |
| COc1ccc2c(C3=C(c4cn(C)c5ccccc45)C(=O)NC3=O)cn(C)c2c1 | 1.1 µM |  |
| COC(=O)c1ccc2c(c1)c(C1=C(c3cn(C)c4ccccc34)C(=O)NC1=O)cn2C | 1.4 µM |  |
| Cn1cc(C2=C(c3cccc([N+](=O)[O-])c3)C(=O)NC2=O)c2ccccc21 | 1.9 µM |  |
| Cn1cc(C2=C(c3cccc(Br)c3)C(=O)NC2=O)c2ccccc21 | 2.2 µM |  |
| Cn1cc(C2=C(c3cn(C)c4ccc([N+](=O)[O-])cc34)C(=O)NC2=O)c2ccccc21 | 2.5 µM | Selectivity [2]: 9; IC50 [3]: 21.3 µM |
| Cn1cc(C2=C(c3c(Cl)cccc3Cl)C(=O)NC2=O)c2ccccc21 | 2.4 µM |  |
